From US5935928A, “Modified platelet factor-4” (Eli Lilly and Company, priority 1996, dated 1999)
Positions of bridges follow the written chain, without caps; N, C: chain ends. Chains are numbered I, II in the order given. No end group written: not given here.

Test: Heparin-affinity chromatography (heparin binding)
Details: heparin-sepharose; eluted in high-affinity fraction 0.7M to 2.0M NaCl
Description: The eluted proteins are then contacted with a heparin affinity resin. The ordinarily skilled artisan will readily realize that this step is best achieved in a column chromatography mode. Heparin affinity columns are commercially available from some of the same vendors mentioned above. In this step, the molecules of interest, both MPF-4 or CPF-4, bind to the heparin column and are eluted using an increasing linear salt gradient. The preferred salt is NaCl, and the portion of the gradient that is preferably collected is the 0.1-2.0M portion. The more highly preferred portion of the gradient to collect is the 0.7-2.0M portion.
The C4-pool was further fractionated by heparin affinity chromatography on a Econo-pac™ 5 ml heparin-sepharose cartridge (BioRad, Richmond, Calif. 94804). The bound proteins were eluted by a linear gradient of 0 to 2.0M NaCl in phosphate buffer saline (PBS) at a flow rate of 2.0 ml/min. The proteins that eluted from the column were pooled into three fractions: (1) non-heparin binding (flow through), (2) low-affinity heparin binding (0 to 0.7M NaCl), and (3) high-affinity heparin binding (0.7M to 2.0M NaCl) fractions.
The high affinity heparin binding fraction (3) (0.7M to 2.0M NaCl) was applied to a Vydac™ 0.46×10 cm C-4 HPLC column (The Marshall Co.; Worthington, Ohio 43085), previously equilibrated with 27% acetonitrile, 0.1% TFA. […]

Molecule: MPF-4: Naturally-occurring 54 amino acid protein (SEQ ID NO:1), homologous with the 54 C-terminal residues of PF-4, beginning with Ser-17 (SQVRPRHITSLEVIKAGPHCPTAQLIATLKNGRKICLDLQAPLYKKIIKKLLES)
- heparin binding: bind heparin

B1: CPF-4: Proteolytically cleaved, non-reduced PF-4: 16 amino acid chain (SEQ ID NO:2) disulfide bonded to the 54 amino acid chain of MPF-4 (protein)
chain 1: EAEEDGDLQCLCVKTT
chain 2: SQVRPRHITSLEVIKAGPHCPTAQLIATLKNGRKICLDLQAPLYKKIIKKLLES
modifications: disulfide I:10-II:20, I:12-II:36; not fully specified
- heparin binding: bind heparin
